Koff, Kon and Block time data for seven compounds are collected here from ChEMBL document CHEMBL1126173, “Molecular recognition of amiloride analogs: a molecular electrostatic potential analysis. 1. Pyrazine ring modifications” (J Med Chem, 1992).

Holding throughout (conditions): rana ridibundus
Data set [1] in a line: Inhibitory activity against epithelial sodium channels- NA+/H+ antiporter, Na+/ca+2 exchanger, Na+/ca+2 channels, K+ channel, nicotinic acetylcholine receptor and Na+/K+ ATPase (microscopic dissociation constant). It counts as ADME.
Data set [2] is described as follows: Inhibitory activity against epithelial sodium channels- NA+/H+ antiporter, Na+/ca+2 exchanger, Na+/ca+2 channels, K+ channel, nicotinic acetylcholine receptor and Na+/K+ ATPase.
The nature of data set [3]: Blocking time for inhibition of epithelial sodium channels- NA+/H+ antiporter, Na+/ca+2 exchanger, Na+/ca+2 channels, K+ channel, nicotinic acetylcholine receptor and Na+/K+ ATPase.
The nature of data set [4]: Inhibitory activity against epithelial sodium channels- NA+/H+ antiporter, Na+/ca+2 exchanger, Na+/ca+2 channels, K+ channel, nicotinic acetylcholine receptor and Na+/K+ ATPase(microscopic dissociation constant).

SMILES strings stand for the structures.

As to `Nc1nc(N)c(C(=O)NC(N)N)nc1I`, the Koff in data set [1] stood at 17.41 s⁻¹. In addition, in data set [2], the Kon stood at 1.143e+07 M⁻¹ s⁻¹. In addition, the Block time in data set [3] came out at 57 ms.
As to `Nc1nc(N)c(C(=O)NC(N)N)nc1F`, the Koff in data set [1] amounted to 32.2 s⁻¹. This compound also returned a Kon in data set [2] of 1.354e+07 M⁻¹ s⁻¹. In data set [3], the Block time worked out at 31 ms.
`Nc1cnc(C(=O)NC(N)N)c(N)n1` yielded a Koff in data set [1] of 176.25 s⁻¹. The Kon in data set [2] amounted to 1.447e+07 M⁻¹ s⁻¹. The compound further yielded a Block time in data set [3] of 6 ms.
On the same counts, the results for `Nc1nc(Cl)c(Cl)nc1C(=O)NC(N)N` are 151.1 s⁻¹, 5.16e+06 M⁻¹ s⁻¹ and 7 ms.
On the same counts, the results for `Nc1ncc(Cl)nc1C(=O)NC(N)N` are 10.89 s⁻¹, 3.32e+06 M⁻¹ s⁻¹ and 92 ms.
The compound `Nc1nc(N)c(C(=O)NC(N)N)nc1Br` displayed a Koff in data set [4] of 5.58 s⁻¹. The compound also came in with a Kon in data set [2] of 1.419e+07 M⁻¹ s⁻¹. The compound also returned a Block time in data set [3] of 179 ms.
`Nc1nc(N)c(C(=O)NC(N)N)nc1Cl` returned a Koff in data set [1] of 3.93 s⁻¹. This compound also yielded a Kon in data set [2] of 1.317e+07 M⁻¹ s⁻¹. The compound also showed a Block time in data set [3] of 255 ms.
